These results are taken from patent US20190330275A1 (priority 2016, published 2019).

In one assay the target is rat α6/α3β4 nAChR (Rattus norvegicus, UniProt P04757+P12392+P43143). In words: cell-based.
The target in the next assay is rat α3β4 nAChR (Rattus norvegicus, UniProt P04757+P12392). Nature of the assay: cell-based. The note with it: for IC50: α3β4 IC50 (half-blocking dose).
[1] abbreviates: α6/α3β4 IC50 (half-blocking dose).

Peptide text beside a SMILES is read from it. A value given as a limit tells only on which side of the number the result lay.

Chain of rat α3β4 nAChR (P04757 26-499 limits assumed): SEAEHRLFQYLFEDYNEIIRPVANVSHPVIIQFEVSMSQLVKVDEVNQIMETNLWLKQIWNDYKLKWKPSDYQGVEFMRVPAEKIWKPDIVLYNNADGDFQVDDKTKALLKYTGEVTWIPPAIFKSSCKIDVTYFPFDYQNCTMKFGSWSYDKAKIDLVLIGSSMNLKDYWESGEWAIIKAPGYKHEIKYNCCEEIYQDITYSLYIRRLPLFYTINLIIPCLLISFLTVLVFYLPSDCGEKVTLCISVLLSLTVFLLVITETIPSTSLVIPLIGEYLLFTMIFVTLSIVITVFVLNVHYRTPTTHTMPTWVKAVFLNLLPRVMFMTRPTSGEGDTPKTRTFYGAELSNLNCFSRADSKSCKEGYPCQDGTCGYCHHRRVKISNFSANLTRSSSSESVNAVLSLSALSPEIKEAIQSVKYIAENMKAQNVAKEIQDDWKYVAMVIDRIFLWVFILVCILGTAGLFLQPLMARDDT
Chain of rat α3β4 nAChR (P12392 21-495 limits assumed): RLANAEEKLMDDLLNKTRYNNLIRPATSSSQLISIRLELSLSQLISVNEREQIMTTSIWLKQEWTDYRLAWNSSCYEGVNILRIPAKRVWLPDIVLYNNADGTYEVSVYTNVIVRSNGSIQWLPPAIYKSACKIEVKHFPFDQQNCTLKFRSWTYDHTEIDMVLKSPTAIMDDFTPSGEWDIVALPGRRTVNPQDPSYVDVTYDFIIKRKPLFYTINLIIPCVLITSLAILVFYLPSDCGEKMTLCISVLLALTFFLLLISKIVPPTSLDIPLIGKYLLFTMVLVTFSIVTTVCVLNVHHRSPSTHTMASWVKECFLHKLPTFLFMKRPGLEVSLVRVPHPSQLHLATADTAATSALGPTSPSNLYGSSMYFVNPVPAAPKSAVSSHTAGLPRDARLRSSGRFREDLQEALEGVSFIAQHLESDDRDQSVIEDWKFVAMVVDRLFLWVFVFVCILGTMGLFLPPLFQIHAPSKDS
Chain of rat α6/α3β4 nAChR (P04757 whole entry, looked up): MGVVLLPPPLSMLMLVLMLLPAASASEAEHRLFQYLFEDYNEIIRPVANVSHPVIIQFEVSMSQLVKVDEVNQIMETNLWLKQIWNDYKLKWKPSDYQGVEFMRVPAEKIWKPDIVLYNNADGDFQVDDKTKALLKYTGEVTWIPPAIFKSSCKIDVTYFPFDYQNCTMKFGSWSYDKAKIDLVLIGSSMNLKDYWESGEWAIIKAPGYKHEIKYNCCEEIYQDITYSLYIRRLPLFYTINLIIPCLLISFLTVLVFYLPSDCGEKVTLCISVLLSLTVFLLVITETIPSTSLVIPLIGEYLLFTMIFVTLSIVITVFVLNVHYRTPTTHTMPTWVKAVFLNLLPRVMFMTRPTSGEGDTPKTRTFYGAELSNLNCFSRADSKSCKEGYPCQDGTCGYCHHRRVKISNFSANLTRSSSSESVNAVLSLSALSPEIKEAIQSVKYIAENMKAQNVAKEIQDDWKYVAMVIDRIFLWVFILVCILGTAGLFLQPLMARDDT
Chain of rat α6/α3β4 nAChR (P12392 whole entry, looked up): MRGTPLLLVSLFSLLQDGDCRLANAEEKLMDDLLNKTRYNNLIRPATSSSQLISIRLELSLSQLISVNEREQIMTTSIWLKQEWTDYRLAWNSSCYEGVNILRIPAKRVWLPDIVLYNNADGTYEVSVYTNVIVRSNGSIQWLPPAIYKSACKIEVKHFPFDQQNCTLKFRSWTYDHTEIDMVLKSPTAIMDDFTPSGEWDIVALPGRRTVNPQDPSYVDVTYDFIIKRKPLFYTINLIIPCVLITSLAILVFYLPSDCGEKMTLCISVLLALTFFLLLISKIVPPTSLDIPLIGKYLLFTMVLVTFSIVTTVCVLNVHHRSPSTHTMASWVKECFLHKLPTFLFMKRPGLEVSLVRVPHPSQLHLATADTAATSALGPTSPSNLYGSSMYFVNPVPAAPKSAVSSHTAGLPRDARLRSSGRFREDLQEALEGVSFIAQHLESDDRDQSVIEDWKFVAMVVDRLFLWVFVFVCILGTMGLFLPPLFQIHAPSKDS
Chain of rat α6/α3β4 nAChR (P43143 whole entry, looked up): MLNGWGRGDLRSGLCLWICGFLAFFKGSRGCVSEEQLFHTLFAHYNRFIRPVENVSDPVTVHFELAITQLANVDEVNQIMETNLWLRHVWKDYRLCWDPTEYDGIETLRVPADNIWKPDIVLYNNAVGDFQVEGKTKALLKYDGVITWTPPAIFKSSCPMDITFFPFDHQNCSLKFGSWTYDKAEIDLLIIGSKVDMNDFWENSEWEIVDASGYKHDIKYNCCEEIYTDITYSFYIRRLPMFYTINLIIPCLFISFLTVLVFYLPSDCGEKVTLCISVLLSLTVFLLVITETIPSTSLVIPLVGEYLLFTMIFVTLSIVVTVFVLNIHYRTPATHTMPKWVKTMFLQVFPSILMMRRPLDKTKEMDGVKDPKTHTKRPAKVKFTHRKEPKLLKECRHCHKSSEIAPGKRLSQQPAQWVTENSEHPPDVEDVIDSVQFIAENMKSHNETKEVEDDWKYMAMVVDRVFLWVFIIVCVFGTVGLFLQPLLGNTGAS

`CC[C@H](C)[C@@H]1NC(=O)[C@@H]2CCCN2C(=O)[C@H](CO)NC(=O)[C@H](CCSC)NC(=O)[C@H](C)NC(=O)[C@H](CC(=O)O)NC(=O)[C@@H]2CSSC[C@H](NC(=O)CN)C(=O)N[C@@H](CSSC[C@@H](C(N)=O)NC1=O)C(=O)N[C@@H](CO)C(=O)N[C@@H](Cc1c[nH]cn1)C(=O)N1CCC[C@H]1C(=O)N[C@@H](C(C)C)C(=O)N2` [TxID[S9D]] (HELM PEPTIDE1{G.C.C.S.H.P.V.C.D.A.M.S.P.I.C.[am]}$PEPTIDE1,PEPTIDE1,2:R3-8:R3|PEPTIDE1,PEPTIDE1,3:R3-15:R3$$$V2.0): on rat α6/α3β4 nAChR, the “blocking effect on the current of rat α6/α3β4 nAChRs” value is recorded as “no blocking effect”.

With `CC[C@H](C)[C@@H]1NC(=O)[C@@H]2CCCN2C(=O)[C@H](CO)NC(=O)[C@H](CCSC)NC(=O)[C@H](C)NC(=O)[C@H](CC(C)C)NC(=O)[C@@H]2CSSC[C@H](NC(=O)CN)C(=O)N[C@@H](CSSC[C@@H](C(N)=O)NC1=O)C(=O)N[C@@H](CO)C(=O)N[C@@H](Cc1c[nH]cn1)C(=O)N1CCC[C@H]1C(=O)N[C@@H](C(C)C)C(=O)N2` [TxID[S9L]] (HELM PEPTIDE1{G.C.C.S.H.P.V.C.L.A.M.S.P.I.C.[am]}$PEPTIDE1,PEPTIDE1,2:R3-8:R3|PEPTIDE1,PEPTIDE1,3:R3-15:R3$$$V2.0), at rat α3β4 nAChR, the “binding (blocking) activity to α3β4 nAChR compared with wild type TxID” value is “not significantly different from the activity of the wild type TxID”, the “blocking of rat α3β4 nAChRs current” value was “strong blocking activities”, the “current after 2 min of elution” value was approximately 0 nA and the “elution after blocking the α3β4 nAChR current” value is “very slow”. Further, at rat α6/α3β4 nAChR, the “binding (blocking) activity to α6/α3β4 nAChR compared with wild type TxID” value is given as “not significantly different from the activity of the wild type TxID”.

For the compound `CC[C@H](C)[C@@H]1NC(=O)[C@@H]2CCCN2C(=O)[C@H](CO)NC(=O)[C@H](CCSC)NC(=O)[C@H](C)NC(=O)[C@H](C)NC(=O)[C@@H]2CSSC[C@H](NC(=O)CN)C(=O)N[C@@H](CSSC[C@@H](C(N)=O)NC1=O)C(=O)N[C@@H](CO)C(=O)N[C@@H](Cc1c[nH]c3ccccc13)C(=O)N1CCC[C@H]1C(=O)N[C@@H](C(C)C)C(=O)N2` [TxID[H5W, S9A]] (HELM PEPTIDE1{G.C.C.S.W.P.V.C.A.A.M.S.P.I.C.[am]}$PEPTIDE1,PEPTIDE1,2:R3-8:R3|PEPTIDE1,PEPTIDE1,3:R3-15:R3$$$V2.0), the IC50 at rat α3β4 nAChR and against rat α6/α3β4 nAChR (setting [1]) was more than 10 µM in each case.

As to `CC[C@H](C)[C@@H]1NC(=O)[C@@H]2CCCN2C(=O)[C@H](CO)NC(=O)[C@H](CCSC)NC(=O)[C@H](C)NC(=O)[C@H](CO)NC(=O)[C@@H]2CSSC[C@H](NC(=O)CN)C(=O)N[C@@H](CSSC[C@@H](C(N)=O)NC1=O)C(=O)N[C@@H](CO)C(=O)N[C@@H](Cc1c[nH]c3ccccc13)C(=O)N1CCC[C@H]1C(=O)N[C@@H](C(C)C)C(=O)N2` [TxID[H5W]] (HELM PEPTIDE1{G.C.C.S.W.P.V.C.S.A.M.S.P.I.C.[am]}$PEPTIDE1,PEPTIDE1,2:R3-8:R3|PEPTIDE1,PEPTIDE1,3:R3-15:R3$$$V2.0), the IC50 against rat α3β4 nAChR and against rat α6/α3β4 nAChR (setting [1]) was more than 10 µM each time.

Take `CC[C@H](C)[C@@H]1NC(=O)[C@@H]2CCCN2C(=O)[C@H](CO)NC(=O)[C@H](CCSC)NC(=O)[C@H](C)NC(=O)[C@H](CCCNC(=N)N)NC(=O)[C@H](CO)NC(=O)[C@@H]2CSSC[C@H](NC(=O)CN)C(=O)N[C@@H](CSSC[C@@H](C(N)=O)NC1=O)C(=O)N[C@@H](CO)C(=O)N[C@@H](Cc1c[nH]cn1)C(=O)N1CCC[C@H]1C(=O)N[C@@H](C(C)C)C(=O)N2` [TxID[10R]] (HELM PEPTIDE1{G.C.C.S.H.P.V.C.S.R.A.M.S.P.I.C.[am]}$PEPTIDE1,PEPTIDE1,2:R3-8:R3|PEPTIDE1,PEPTIDE1,3:R3-16:R3$$$V2.0): the IC50 on rat α3β4 nAChR and on rat α6/α3β4 nAChR (setting [1]) was more than 10 µM throughout.

`CC[C@H](C)[C@@H]1NC(=O)[C@@H]2CCCN2C(=O)[C@H](CO)NC(=O)[C@H](CCSC)NC(=O)[C@H](C)NC(=O)[C@H](CO)NC(=O)[C@@H]2CSSC[C@H](NC(=O)[C@H](C)N)C(=O)N[C@@H](CSSC[C@@H](C(N)=O)NC1=O)C(=O)N[C@@H](CO)C(=O)N[C@@H](Cc1c[nH]cn1)C(=O)N1CCC[C@H]1C(=O)N[C@@H](C(C)C)C(=O)N2` [TxID[G1A]] (HELM PEPTIDE1{A.C.C.S.H.P.V.C.S.A.M.S.P.I.C.[am]}$PEPTIDE1,PEPTIDE1,2:R3-8:R3|PEPTIDE1,PEPTIDE1,3:R3-15:R3$$$V2.0): on rat α6/α3β4 nAChR (setting [1]), the IC50 was in the range of 0.1 to 1 µM.

Take `CC[C@H](C)[C@@H]1NC(=O)[C@H](CC(=O)O)NC(=O)[C@@H]2CCCN2C(=O)[C@H](CO)NC(=O)[C@H](CCSC)NC(=O)[C@H](C)NC(=O)[C@H](CO)NC(=O)[C@@H]2CSSC[C@H](NC(=O)CN)C(=O)N[C@@H](CSSC[C@@H](C(N)=O)NC1=O)C(=O)N[C@@H](CO)C(=O)N[C@@H](Cc1c[nH]cn1)C(=O)N1CCC[C@H]1C(=O)N[C@@H](C(C)C)C(=O)N2` [TxID[14D]] (HELM PEPTIDE1{G.C.C.S.H.P.V.C.S.A.M.S.P.D.I.C.[am]}$PEPTIDE1,PEPTIDE1,2:R3-8:R3|PEPTIDE1,PEPTIDE1,3:R3-16:R3$$$V2.0): on rat α3β4 nAChR, the “α3β4 IC50 ratio” value was 14.1 and the IC50 stood at 0.0506 µM. Further, on rat α6/α3β4 nAChR, the “IC50 ratio of α6/α3β4 vs. α3β4 (Discrimination)” value was 44.7 and the “α6/α3β4 IC50 ratio” value was 66.6. At rat α6/α3β4 nAChR (α6/α3β4 IC50), this compound yielded an IC50 of 1 to 10 µM. On rat α6/α3β4 nAChR (setting [1]), this compound came in with an IC50 of 2.26 µM.

On to `CC[C@H](C)[C@@H]1NC(=O)[C@@H]2CCCN2C(=O)[C@H](CO)NC(=O)[C@H](CCSC)NC(=O)[C@H](C)NC(=O)[C@H](Cc2ccc(O)cc2)NC(=O)[C@@H]2CSSC[C@H](NC(=O)CN)C(=O)N[C@@H](CSSC[C@@H](C(N)=O)NC1=O)C(=O)N[C@@H](CO)C(=O)N[C@@H](Cc1c[nH]cn1)C(=O)N1CCC[C@H]1C(=O)N[C@@H](C(C)C)C(=O)N2` [TxID[S9Y]] (HELM PEPTIDE1{G.C.C.S.H.P.V.C.Y.A.M.S.P.I.C.[am]}$PEPTIDE1,PEPTIDE1,2:R3-8:R3|PEPTIDE1,PEPTIDE1,3:R3-15:R3$$$V2.0), for which, at rat α3β4 nAChR, the “binding (blocking) activity to α3β4 nAChR compared with wild type TxID” value was “not significantly different from the activity of the wild type TxID”, the “blocking of rat α3β4 nAChRs current” value is reported as “strong blocking activities”, the “current after 2 min of elution” value is listed as approximately 0 nA and the “elution after blocking the α3β4 nAChR current” value is given as “very slow”. Also, on rat α6/α3β4 nAChR, the “binding (blocking) activity to α6/α3β4 nAChR compared with wild type TxID” value is reported as “not significantly different from the activity of the wild type TxID”.

Consider `CC[C@H](C)[C@@H]1NC(=O)[C@H](C)NC(=O)[C@H](CO)NC(=O)[C@@H]2CSSC[C@H](NC(=O)CN)C(=O)N[C@@H](CSSC[C@@H](C(N)=O)NC(=O)[C@H]([C@@H](C)CC)NC(=O)[C@@H]3CCCN3C(=O)[C@H](CO)NC1=O)C(=O)N[C@@H](CO)C(=O)N[C@@H](Cc1c[nH]cn1)C(=O)N1CCC[C@H]1C(=O)N[C@@H](C(C)C)C(=O)N2` [TxID[M11I]] (HELM PEPTIDE1{G.C.C.S.H.P.V.C.S.A.I.S.P.I.C.[am]}$PEPTIDE1,PEPTIDE1,2:R3-8:R3|PEPTIDE1,PEPTIDE1,3:R3-15:R3$$$V2.0), for which the “binding (blocking) activity to α6/α3β4 nAChR compared with wild type TxID” value on rat α6/α3β4 nAChR is “not a decrease”.

Broadly, the IC50 is the concentration at which inhibition is half-maximal.
